Measurements: patent US20240208998A1, “COMPOUNDS FOR USE IN THE TREATMENT OF HYPERPROLIFERATIVE DISORDERS” (FUNDACIÓ PRIVADA INSTITUT D'INVESTIGACIÓ ONCOLÓGICA DE VALL …, priority 2021, published 2024)

What was measured:
[1] = test system: HL60 cell line; assay: Antiproliferative activity on HL60 cell line (CellTiter-Glo); assay type: cell-based; conditions: Homo sapiens, HL-60; HL60, 72 h of treatment
Method: The human leukaemic cell line HL60 was grown in suspension in RPMI 1640 medium containing 10% (v/v) FBS and 1% (v/v) P/S (Life Technologies). […] Leukaemia cells were suspended at a density of 2×10^5 cells/mL in complete RPMI 1640 medium and 25 μL were seeded in each well (5×10^3 final total cells/well). A 10 μM solution of the compounds of examples 1, 12 and 21, and a 25 μM solution of all other compounds were prepared in complete medium, and then serially diluted (1:2) (as specified in Table 3 below). A solution of complete medium with DMSO was used as a vehicle control.
Twenty-five microliters of each serially diluted compound solution were added to the corresponding wells of the plate (50 μL of final volume/well). After 48 h of treatment, 50 μL of fresh 2X serially diluted compound solution was added to their corresponding wells (100 μL of final volume/well). After twenty-four additional hours, an equal volume (100 μL) of CellTiter-Glo Reagent (Promega) was added to each well, plates were shaken during 2 min and incubated at rt for 10 min. Luminescence was recorded using a Spark multimode microplate reader and an integration time of 1 s per well.

[2] = target: TET2 (Homo sapiens (Human), UniProt Q6N021); assay: Determination of TET2 activity in cell (5-hmC dot-blot, TET2-transfected HEK293T cells); assay type: cell-based; conditions: 10 μM compound, HEK293T transfected with pCMV6-TET2, 48 h after transfection; in reference to vehicle, corrected with example 1 condition
Method: The HEK293T cell line was grown in Dulbecco's Modified Eagle Medium (DMEM) containing 10% (v/v) fetal bovine serum (FBS) and 1% (v/v) penicillin-streptomycin (P/S).
Twenty-four hours prior transfection, 3×10^6 HEK293T cells were seeded in p100 dishes previously coated with 0.001% of poly (1-lysine). One hour before transfection, a 10 μM solution of each compound was prepared in complete medium and 9 mL was added by medium replacement in one p100 dish (by duplicate). A solution of complete medium with DMSO was used as a vehicle control. Then, a transfection mix was prepared diluting 8 μg of pCMV6-TET2 expression vector (ID: RC226438, Origene) with 32 μg of polyethylenimine (PEI 25000, Polysciences, Inc.) in a 150 mM NaCl solution per p100 plate. After 15 min of incubation at rt, 1 mL of the transfection mix was added to each p100 plate. Next day, medium was replaced with a fresh diluted compound solution (10 mL/p100 dish). Forty-eight hours after transfection, cells were trypsinized and pelleted. Each pellet was suspended in 500 μL of DNA lysis buffer (50 mM Tris-HCl pH 8, 10 mM EDTA pH 8, 0.1% Triton X-100, 0.5% Tween-20, 400 μg/mL Proteinase K, 50 μg/mL RNAse), and incubated overnight at 56° C. in a thermal mixer. Next day, genomic DNA (gDNA) was extracted from each sample following a standard phenol-chloroform extraction method.
For each sample, 2 μg of gDNA was diluted in 50 μL of H2O. Then, 50 μL of 2X Denature solution (0.8 M NaOH, 20 mM EDTA) was added to each sample and incubated at 95° C. for 10 min. Samples were immediately placed on ice to cool and mixed with 100 μL of cold 2X Neutralize buffer (2 M ammonium acetate pH 7). Then, samples were incubated on ice for 10 min. DNA two-fold serial dilutions were prepared by mixing 100 μL of each sample with 100 μL of H2O in the next well, and so on. A total of 7 serial dilutions were set up. One hundred microliters of each sample and their respective dilutions were spotted on a positively charged nylon membrane (Amersham Hybond-N+, GE healthcare) in an assembled Bio-Dot apparatus (Bio-Rad). Samples were washed adding 400 μL of 0.4 M NaOH in each well. Then, blotted membrane was removed from the Bio-Dot apparatus and washed with 2×SSC buffer (0.3 M NaCl, 30 mM sodium citrate) for 5 min, air dried for 15 min, and UV-crosslinked (energy 120,000 μJ/cm^2) for 1 min. Afterwards, the blotted membrane was blocked with Blocking solution (5% non-fat milk, 0.1% Tween-20 in PBS1X) for 1 h at rt. Then, the membrane was incubated with the 5-hmC (5-hydroxymethylcytosine) primary antibody (#39769, Active Motif) diluted 1/10,000 in Blocking solution for 1 h at rt. Next, membrane was washed three times for 5 min in PBS1X and incubated with the anti-rabbit-HRP secondary antibody diluted 1/5,000 in blocking solution for 1 h at rt. Finally, the membrane was washed three times for 5 min in PBS1X, developed with SuperSignal West Pico Chemiluminescent Substrate (ThermoFisher Scientific), and exposed to autoradiography films (Fujifilm).
Each dot-blot membrane allows the evaluation of up to 6 different conditions (in duplicate) at the same time. Among these 6 different conditions there is always the condition of the vehicle and our compound of example 1, so in the end we evaluated 4 new compounds per membrane. The density intensity of each dot was quantified using the Image J software. […] Fold-change was calculated in reference to the vehicle condition and corrected with the example 1 condition for each dot-blot membrane.

Cc1[nH]c2ccccc2c1-c1csc(NC(=O)Cc2cc(Br)cs2)n1 [Example 19, 2-(4-bromothiophen-2-yl)-N-[4-(2-methyl-1H-indol-3-yl)thiazol-2-yl]acetamide]
EC50 [1]: 809 nM
Fold change (amount of 5-hmC) [2]: 8.4
melting point: 212 to 214 °C

Cc1[nH]c2ccccc2c1-c1csc(NC(=O)Cc2c[nH]c3ccccc23)n1 [Example 13, 2-(1H-indol-3-yl)-N-[4-(2-methyl-1H-indol-3-yl)thiazol-2-yl]acetamide]
EC50 [1]: 1400 nM
Fold change (amount of 5-hmC) [2]: 11.6
melting point: 246 to 248 °C

Cc1[nH]c2ccccc2c1-c1csc(NC(=O)Cc2c[nH]c3ccc(O)cc23)n1 [Example 21, 2-(5-hydroxy-1H-indol-3-yl)-N-[4-(2-methyl-1H-indol-3-yl)thiazol-2-yl]acetamide]
EC50 [1]: 63 nM
Fold change (amount of 5-hmC) [2]: 15.3
melting point: 145 to 149 °C

Cc1[nH]c2ccccc2c1-c1nc(NC(=O)Cc2cn3ccsc3n2)sc1C [Example 4, 2-(imidazo[2,1-b]thiazol-6-yl)-N-[5-methyl-4-(2-methyl-1H-indol-3-yl)thiazol-2-yl]acetamide]
EC50 [1]: 2300 nM
Fold change (amount of 5-hmC) [2]: 9.2
melting point: 169 to 172 °C

Cc1[nH]c2ccccc2c1-c1csc(NC(=O)Cc2c[nH]c3ccc(F)cc23)n1 [Example 12, 2-(5-fluoro-1H-indol-3-yl)-N-[4-(2-methyl-1H-indol-3-yl)thiazol-2-yl]acetamide]
EC50 [1]: 497 nM
Fold change (amount of 5-hmC) [2]: 16.0
melting point: 230 to 232 °C
